Type in all cases: functional
What all share (conditions): read-out: ED50 (the source's name)

The test system of assay [1] is A549. Nature of the assay: Cytotoxicity against human A549 cells.
For assay [2], the system named is HCT-15. Nature of the assay: Cytotoxicity against human HCT15 cells.
Assay [3] has as its system XF498. Nature of the assay: Cytotoxicity against human XF498 cells.
In assay [4] the test system is SK-OV-3. Nature of the assay: Cytotoxicity against human SKOV3 cells.
The test system of assay [5] is SK-MEL-2. Nature of the assay: Cytotoxicity against human SK-MEL-2 cells.

Values after ≈ are worked out from the molar mass of the structure shown.

For the compound `CC(C)=CCC/C(C)=C\CC/C(C)=C\Cc1cc(O)c(C)cc1O`, the EC50 in assay [1] was found to be 4.73 µg/mL (≈ 14.4 µM); in assay [2] it was 6.11 µg/mL (≈ 18.6 µM); in assay [3], 5.94 µg/mL (≈ 18.1 µM); in assay [4], 5.31 µg/mL (≈ 16.2 µM); in assay [5] it was 4.8 µg/mL (≈ 14.6 µM).
As for `CC(C)=CCC/C(C)=C/CC/C(C)=C/C[C@@]12O[C@@H]1[C@H](O)C(C)=CC2=O`, the EC50 in assay [1] turned out to be 7.74 µg/mL (≈ 22.5 µM); in assay [2] it was 10.1 µg/mL (≈ 29.2 µM); in assay [3] it was 10 µg/mL (≈ 29.1 µM); in assay [4] it was 6.35 µg/mL (≈ 18.4 µM); in assay [5] it was 3.86 µg/mL (≈ 11.2 µM).
Take `COc1cccc2c1C(=O)c1c(O)c3c(c(O)c1C2=O)C[C@@](O)(C(=O)CO)C[C@@H]3O[C@H]1C[C@H](N)[C@H](O)[C@H](C)O1` [DOXORUBICIN]: the EC50 turned out to be 0.02 µg/mL (≈ 0.0368 µM) in assay [1]; 0.79 µg/mL (≈ 1.45 µM) in assay [2]; 0.02 µg/mL (≈ 0.0368 µM) in assay [3]; 0.09 µg/mL (≈ 0.166 µM) in assay [4]; 0.04 µg/mL (≈ 0.0736 µM) in assay [5].
With `CC(C)=CCC/C(C)=C\CC/C(C)=C\CC1=CC(=O)C(C)=CC1=O`, the EC50 in assay [1] was 25.4 µg/mL (≈ 77.9 µM); in assay [2], 42.6 µg/mL (≈ 130 µM); in assay [3], 38.1 µg/mL (≈ 117 µM); in assay [4], 37.3 µg/mL (≈ 114 µM); in assay [5] it was 18.4 µg/mL (≈ 56.4 µM).
